Read-outs that look alike come from different tables or passages of the source.
Columns and labels:
GPR40 = molecular target: T1, GPR40 (Homo sapiens, UniProt O14842); assay: β-arrestin assay (PathHunter) for GPR40 agonism; assay type: cell-based; details: for activity at GPR40 in heat map of % maximal efficacy: single dose 15 μM, FIG. 9A, compared to oleic acid at 15 μM; for GPR40 agonism / selectivity for GPR40 over GPR120 / EC50: dose-response; for GPR40 agonism / selectivity for GPR40 over GPR120: FIG. 9B; for potency at GPR40 relative to oleic acid: multiple of oleic acid potency; for EC50: PathHunter β-arrestin
T1 construct: beta-galactosidase enzyme fragment for EFC (ProLink-type tag); expressed in transfected cells
T1 sequence (O14842 whole entry, the tested form may be a part): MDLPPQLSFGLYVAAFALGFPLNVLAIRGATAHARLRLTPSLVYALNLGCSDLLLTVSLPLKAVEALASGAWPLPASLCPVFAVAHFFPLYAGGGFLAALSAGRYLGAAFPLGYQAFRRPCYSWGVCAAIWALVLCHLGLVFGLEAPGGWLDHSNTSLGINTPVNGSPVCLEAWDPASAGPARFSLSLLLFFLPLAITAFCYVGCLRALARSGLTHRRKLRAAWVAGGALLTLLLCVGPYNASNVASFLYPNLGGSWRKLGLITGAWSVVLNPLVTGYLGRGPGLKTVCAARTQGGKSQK
Protocol: (§1) In this example, compounds from Example 1 were assessed as functional ligands (agonists) to two oleic acid receptors (GPR40 and GPR120). […]

GPR120 [1] = molecular target: T2, GPR120 (Homo sapiens, UniProt Q5NUL3); assay: β-arrestin assay (PathHunter) for GPR120 agonism; assay type: cell-based; parameters: beta-galactosidase enzyme fragment for EFC (ProLink-type tag); expressed in transfected cells; details: for EC50: PathHunter β-arrestin, dose-response; for agonist efficacy at GPR120: relative to oleic acid and GW9508; for activity at GPR120 in heat map of % maximal efficacy: single dose 15 μM, FIG. 9A, compared to oleic acid at 15 μM
T2 sequence (Q5NUL3 1-361): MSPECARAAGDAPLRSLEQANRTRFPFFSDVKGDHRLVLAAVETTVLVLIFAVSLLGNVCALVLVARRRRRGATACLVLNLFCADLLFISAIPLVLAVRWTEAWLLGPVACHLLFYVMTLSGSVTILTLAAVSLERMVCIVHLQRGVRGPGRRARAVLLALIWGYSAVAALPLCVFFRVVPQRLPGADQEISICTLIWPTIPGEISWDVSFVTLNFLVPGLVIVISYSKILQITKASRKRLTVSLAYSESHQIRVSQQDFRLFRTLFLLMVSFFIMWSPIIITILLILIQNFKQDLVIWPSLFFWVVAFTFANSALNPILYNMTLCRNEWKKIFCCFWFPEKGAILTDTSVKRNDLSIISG
Protocol: as §1

CHO-mGPR40 cells = molecular target: T3, CHO-mGPR40 cells (Mus musculus, UniProt Q76JU9); details: reported; read-out: EC50, stimulatory activity on CHO-mGPR40 cells; cited from earlier work
T3 construct: host or cells: CHO cells transfected with mGPR40
T3 sequence (Q76JU9 whole entry): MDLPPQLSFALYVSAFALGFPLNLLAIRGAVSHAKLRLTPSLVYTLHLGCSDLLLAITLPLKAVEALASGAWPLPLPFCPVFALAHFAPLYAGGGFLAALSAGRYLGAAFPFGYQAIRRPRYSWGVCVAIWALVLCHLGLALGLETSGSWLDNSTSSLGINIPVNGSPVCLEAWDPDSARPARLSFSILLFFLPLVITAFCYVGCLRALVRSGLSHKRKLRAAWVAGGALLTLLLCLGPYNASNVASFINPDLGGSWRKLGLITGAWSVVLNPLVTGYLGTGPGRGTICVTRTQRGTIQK

MIN6 cells = details: reported, concentrations as low as; cited from earlier work
GPR120 [2] = molecular target: T2, GPR120; details: read-out: EC50 as agonist of GPR120; reported; cited from earlier work

Row | Compound | activity at GPR40 in heat map of % maximal efficacy (GPR40) | selectivity for GPR40 over GPR120 (GPR40) | potency at GPR40 relative to oleic acid (GPR40) | activity against GPR120 (GPR120 [1]) | EC50 (GPR120 [1]) [µM] | activity at GPR120 in heat map of % maximal efficacy (GPR120 [1]) | GPR40 agonism (GPR40) | agonist efficacy at GPR120 (GPR120 [1]) | further results
1 | CCCCCCCCCC/C=C(/C)C/C(C)=C/[C@H](C)CC(=O)O [Compound 1-A] | enriched for activity at GPR40 | – | – | – | – | – | – | – | –
2 | CCCCCCCCC[C@@H](C)/C=C(/C)C/C(C)=C/[C@H](C)CC(=O)O [Compound 1-C] | enriched for activity at GPR40 | substantial selectivity over GPR120 | – | – | – | – | exceptionally selective and potent agonists of GPR40 | – | –
3 | CCCCCCCCC[C@H](C)/C=C(/C)C/C(C)=C/[C@H](C)CC(=O)O [Compound 1-E] | enriched for activity at GPR40 | substantial selectivity over GPR120 | twelve times greater than oleic acid | – | – | – | exceptionally selective and potent agonists of GPR40 | – | –
4 | CCCCCCCCC[C@H](C)/C=C(/C)C/C(C)=C/[C@@H](C)CC(=O)O [Compound 1-F] | – | substantial selectivity over GPR120 | – | – | – | – | exceptionally selective and potent agonists of GPR40 | – | –
5 | CCCCCCC[C@@H](C)/C=C(/C)C/C(C)=C/[C@H](C)CCCC(=O)O [Compound 2-C] | – | – | approximately 6 fold | agonist activity against GPR120 | 1 to 7 | enriched for activity at GPR120 | effective agonists of GPR40 | agonist efficacy at a fraction of what is observed with oleic acid and GW9508 | –
6 | O=C(O)CCc1ccc(NCc2cccc(Oc3ccccc3)c2)cc1 [GW9508, reference compound] | – | – | – | – | – | – | – | – | EC50 (GPR40): 1 µM
7 | CCCCCCCC/C=C\CCCCCCCC(=O)O [oleic acid, reference compound] | – | – | – | agonist activity against GPR120 | 15 | – | – | – | EC50 (CHO-mGPR40 cells): 2 µM; concentration inducing insulin secretion in MIN6 cells (MIN6 cells): ≥ 1 µM; EC50 (GPR40): 37 µM; right shift of reporter assay results (GPR40; versus reported values, receptor not specified): ~ 20 fold; EC50 (GPR120 [2]): 12 µM

Further lines, with some results ahead:

Row | activity at GPR40 in heat map of % maximal efficacy (GPR40) | selectivity for GPR40 over GPR120 (GPR40) | potency at GPR40 relative to oleic acid (GPR40) | activity against GPR120 (GPR120 [1]) | EC50 (GPR120 [1]) [µM] | activity at GPR120 in heat map of % maximal efficacy (GPR120 [1]) | Compound | GPR40 agonism (GPR40) | agonist efficacy at GPR120 (GPR120 [1]) | further results
8 | – | – | approximately 6 fold | – | 1 to 7 | enriched for activity at GPR120 | CCCCCCC[C@@H](C)/C=C(/C)C/C(C)=C/[C@@H](C)CCCC(=O)O [Compound 2-D] | effective agonists of GPR40 | agonist efficacy at a fraction of what is observed with oleic acid and GW9508 | –
9 | – | – | approximately 6 fold | – | 1 to 7 | enriched for activity at GPR120 | CCCCCCC[C@H](C)/C=C(/C)C/C(C)=C/[C@H](C)CCCC(=O)O [Compound 2-E] | effective agonists of GPR40 | agonist efficacy at a fraction of what is observed with oleic acid and GW9508 | selectivity for GPR120 (GPR120 [1]; GPR120 over GPR40): 5 fold; enhanced potency (GPR120 [1]; versus oleic acid or GW9508): 7-15 fold
10 | – | – | – | inactive against GPR120 | – | – | CCC[C@@H](C)/C=C(/C)C/C(C)=C/[C@H](C)CCCCCCCC(=O)O [Compound 4-C] | – | – | –
